Test [1] relates to IFNγ release in whole blood. Briefly: In vitro human whole blood assay (IFNγ release). The format is cell-based. As to conditions: αCD3/αCD28 and IL-2 stimulation, 18 hours, read-out: WB inhibition value (pIC50) (converted). The protocol:
This assay measures IFNγ release in whole blood after αCD3/αCD28 and IL-2 treatment. The whole blood contains circulating T lymphocytes; αCD3/αCD28 stimulation mimics antigen receptor signalling, resulting in epigenetic changes to the IFNG gene locus, such that when IL-2 is added, IFNγ is produced.
Human whole blood, with Na-heparin as the anticoagulant, is obtained from Clinical Trials Laboratory Services. Blood is diluted 1.4 times with RPMI 1640 (Lonza, BE12-167F) and 175 μl/well is distributed in a low evaporation 96-well plates (Falcon, BD Labware, 353072). Blood is treated with 10 concentrations of test compounds or DMSO alone for controls (final DMSO concentration 0.2%) and incubated at 37° C. for 1 hour. Blood is then stimulated with 1 μg/ml αCD3 (R&D Systems, MAB100), 1 μg/ml αCD28 (BD Pharmingen, 555725) and IL-2 at 10 ng/ml (Peprotech, 200-02). Blood is then left to incubate at 37° C. for 18 hours. After, plates are spun at 250 g for 5 minutes to pellet blood cells and 25 μl of plasma is transferred to a MesoScale plate coated with an antibody to IFNγ (MesoScale Discovery K151AEC-2) containing 25 μl/well MesoScale Discovery Blocking Solution-2. Plates have been blocked by incubating with 25 μl/well MesoScale Discovery Blocking Solution-2 for 30 minutes at room temperature. After the transfer of sera to the MSD plate, the IFNγ protein is captured on the coated antibody by incubation at room temperature for 2 hour with gentle shaking. After the capture step the plate is washed three times with 150 μl/well of 1×PBS-Tween wash buffer and 25 μl/well detection antibody conjugated with a Sulfo-Tag is added and incubated for 2 hours at room temperature with gentle shaking. Subsequently the antibody solution is removed and the plate is washed 3 times with 150 μl/well 1×PBS-Tween wash buffer and 150 μl/well MesoScale Discovery Read buffer is added. The plates are analysed on a MSD 2400 Plate Reader (MesoScale Discovery). Data analysis is performed using nonlinear regression for a sigmoidal dose-response with a variable slope.

For the next test, the target named is mTOR (Homo sapiens, UniProt P42345). Description: biochemical.
The test system of test [2] is S6RP serine-240/244 phosphorylation. Briefly: In vitro phospho-S6 cellular assay. As to conditions: Homo sapiens; HEK293T/17 cells, 2 hours; read-out: pS6 inhibition value (IC50), activity level. The format is cell-based. Put shortly:
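HEK293T/17 cells (40,000/well for pS6RP, 80,000/well for pAkt) in DMEM, 2% FCS treated 2 h at 37 °C with 8 compound concentrations (0.1% DMSO). Lysates assayed by MesoScale sandwich electrochemiluminescence for pS6RP Ser240/244 or pAkt Ser473. Curves fitted by sigmoidal variable-slope regression.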

Test [3] has as its target DNA-dependent protein kinase (DNA-PK) (Homo sapiens, UniProt P78527). Briefly: biochemical.

The text below walks through data of US9242993B2, “Morpholino substituted bicyclic pyrimidine urea or carbamate derivatives as mTOR inhibitors” (CELLZOME LIMITED, priority 2011, dated 2016).

Bounds are passed on as bounds.

Sequence of DNA-dependent protein kinase (DNA-PK) (P78527 whole entry): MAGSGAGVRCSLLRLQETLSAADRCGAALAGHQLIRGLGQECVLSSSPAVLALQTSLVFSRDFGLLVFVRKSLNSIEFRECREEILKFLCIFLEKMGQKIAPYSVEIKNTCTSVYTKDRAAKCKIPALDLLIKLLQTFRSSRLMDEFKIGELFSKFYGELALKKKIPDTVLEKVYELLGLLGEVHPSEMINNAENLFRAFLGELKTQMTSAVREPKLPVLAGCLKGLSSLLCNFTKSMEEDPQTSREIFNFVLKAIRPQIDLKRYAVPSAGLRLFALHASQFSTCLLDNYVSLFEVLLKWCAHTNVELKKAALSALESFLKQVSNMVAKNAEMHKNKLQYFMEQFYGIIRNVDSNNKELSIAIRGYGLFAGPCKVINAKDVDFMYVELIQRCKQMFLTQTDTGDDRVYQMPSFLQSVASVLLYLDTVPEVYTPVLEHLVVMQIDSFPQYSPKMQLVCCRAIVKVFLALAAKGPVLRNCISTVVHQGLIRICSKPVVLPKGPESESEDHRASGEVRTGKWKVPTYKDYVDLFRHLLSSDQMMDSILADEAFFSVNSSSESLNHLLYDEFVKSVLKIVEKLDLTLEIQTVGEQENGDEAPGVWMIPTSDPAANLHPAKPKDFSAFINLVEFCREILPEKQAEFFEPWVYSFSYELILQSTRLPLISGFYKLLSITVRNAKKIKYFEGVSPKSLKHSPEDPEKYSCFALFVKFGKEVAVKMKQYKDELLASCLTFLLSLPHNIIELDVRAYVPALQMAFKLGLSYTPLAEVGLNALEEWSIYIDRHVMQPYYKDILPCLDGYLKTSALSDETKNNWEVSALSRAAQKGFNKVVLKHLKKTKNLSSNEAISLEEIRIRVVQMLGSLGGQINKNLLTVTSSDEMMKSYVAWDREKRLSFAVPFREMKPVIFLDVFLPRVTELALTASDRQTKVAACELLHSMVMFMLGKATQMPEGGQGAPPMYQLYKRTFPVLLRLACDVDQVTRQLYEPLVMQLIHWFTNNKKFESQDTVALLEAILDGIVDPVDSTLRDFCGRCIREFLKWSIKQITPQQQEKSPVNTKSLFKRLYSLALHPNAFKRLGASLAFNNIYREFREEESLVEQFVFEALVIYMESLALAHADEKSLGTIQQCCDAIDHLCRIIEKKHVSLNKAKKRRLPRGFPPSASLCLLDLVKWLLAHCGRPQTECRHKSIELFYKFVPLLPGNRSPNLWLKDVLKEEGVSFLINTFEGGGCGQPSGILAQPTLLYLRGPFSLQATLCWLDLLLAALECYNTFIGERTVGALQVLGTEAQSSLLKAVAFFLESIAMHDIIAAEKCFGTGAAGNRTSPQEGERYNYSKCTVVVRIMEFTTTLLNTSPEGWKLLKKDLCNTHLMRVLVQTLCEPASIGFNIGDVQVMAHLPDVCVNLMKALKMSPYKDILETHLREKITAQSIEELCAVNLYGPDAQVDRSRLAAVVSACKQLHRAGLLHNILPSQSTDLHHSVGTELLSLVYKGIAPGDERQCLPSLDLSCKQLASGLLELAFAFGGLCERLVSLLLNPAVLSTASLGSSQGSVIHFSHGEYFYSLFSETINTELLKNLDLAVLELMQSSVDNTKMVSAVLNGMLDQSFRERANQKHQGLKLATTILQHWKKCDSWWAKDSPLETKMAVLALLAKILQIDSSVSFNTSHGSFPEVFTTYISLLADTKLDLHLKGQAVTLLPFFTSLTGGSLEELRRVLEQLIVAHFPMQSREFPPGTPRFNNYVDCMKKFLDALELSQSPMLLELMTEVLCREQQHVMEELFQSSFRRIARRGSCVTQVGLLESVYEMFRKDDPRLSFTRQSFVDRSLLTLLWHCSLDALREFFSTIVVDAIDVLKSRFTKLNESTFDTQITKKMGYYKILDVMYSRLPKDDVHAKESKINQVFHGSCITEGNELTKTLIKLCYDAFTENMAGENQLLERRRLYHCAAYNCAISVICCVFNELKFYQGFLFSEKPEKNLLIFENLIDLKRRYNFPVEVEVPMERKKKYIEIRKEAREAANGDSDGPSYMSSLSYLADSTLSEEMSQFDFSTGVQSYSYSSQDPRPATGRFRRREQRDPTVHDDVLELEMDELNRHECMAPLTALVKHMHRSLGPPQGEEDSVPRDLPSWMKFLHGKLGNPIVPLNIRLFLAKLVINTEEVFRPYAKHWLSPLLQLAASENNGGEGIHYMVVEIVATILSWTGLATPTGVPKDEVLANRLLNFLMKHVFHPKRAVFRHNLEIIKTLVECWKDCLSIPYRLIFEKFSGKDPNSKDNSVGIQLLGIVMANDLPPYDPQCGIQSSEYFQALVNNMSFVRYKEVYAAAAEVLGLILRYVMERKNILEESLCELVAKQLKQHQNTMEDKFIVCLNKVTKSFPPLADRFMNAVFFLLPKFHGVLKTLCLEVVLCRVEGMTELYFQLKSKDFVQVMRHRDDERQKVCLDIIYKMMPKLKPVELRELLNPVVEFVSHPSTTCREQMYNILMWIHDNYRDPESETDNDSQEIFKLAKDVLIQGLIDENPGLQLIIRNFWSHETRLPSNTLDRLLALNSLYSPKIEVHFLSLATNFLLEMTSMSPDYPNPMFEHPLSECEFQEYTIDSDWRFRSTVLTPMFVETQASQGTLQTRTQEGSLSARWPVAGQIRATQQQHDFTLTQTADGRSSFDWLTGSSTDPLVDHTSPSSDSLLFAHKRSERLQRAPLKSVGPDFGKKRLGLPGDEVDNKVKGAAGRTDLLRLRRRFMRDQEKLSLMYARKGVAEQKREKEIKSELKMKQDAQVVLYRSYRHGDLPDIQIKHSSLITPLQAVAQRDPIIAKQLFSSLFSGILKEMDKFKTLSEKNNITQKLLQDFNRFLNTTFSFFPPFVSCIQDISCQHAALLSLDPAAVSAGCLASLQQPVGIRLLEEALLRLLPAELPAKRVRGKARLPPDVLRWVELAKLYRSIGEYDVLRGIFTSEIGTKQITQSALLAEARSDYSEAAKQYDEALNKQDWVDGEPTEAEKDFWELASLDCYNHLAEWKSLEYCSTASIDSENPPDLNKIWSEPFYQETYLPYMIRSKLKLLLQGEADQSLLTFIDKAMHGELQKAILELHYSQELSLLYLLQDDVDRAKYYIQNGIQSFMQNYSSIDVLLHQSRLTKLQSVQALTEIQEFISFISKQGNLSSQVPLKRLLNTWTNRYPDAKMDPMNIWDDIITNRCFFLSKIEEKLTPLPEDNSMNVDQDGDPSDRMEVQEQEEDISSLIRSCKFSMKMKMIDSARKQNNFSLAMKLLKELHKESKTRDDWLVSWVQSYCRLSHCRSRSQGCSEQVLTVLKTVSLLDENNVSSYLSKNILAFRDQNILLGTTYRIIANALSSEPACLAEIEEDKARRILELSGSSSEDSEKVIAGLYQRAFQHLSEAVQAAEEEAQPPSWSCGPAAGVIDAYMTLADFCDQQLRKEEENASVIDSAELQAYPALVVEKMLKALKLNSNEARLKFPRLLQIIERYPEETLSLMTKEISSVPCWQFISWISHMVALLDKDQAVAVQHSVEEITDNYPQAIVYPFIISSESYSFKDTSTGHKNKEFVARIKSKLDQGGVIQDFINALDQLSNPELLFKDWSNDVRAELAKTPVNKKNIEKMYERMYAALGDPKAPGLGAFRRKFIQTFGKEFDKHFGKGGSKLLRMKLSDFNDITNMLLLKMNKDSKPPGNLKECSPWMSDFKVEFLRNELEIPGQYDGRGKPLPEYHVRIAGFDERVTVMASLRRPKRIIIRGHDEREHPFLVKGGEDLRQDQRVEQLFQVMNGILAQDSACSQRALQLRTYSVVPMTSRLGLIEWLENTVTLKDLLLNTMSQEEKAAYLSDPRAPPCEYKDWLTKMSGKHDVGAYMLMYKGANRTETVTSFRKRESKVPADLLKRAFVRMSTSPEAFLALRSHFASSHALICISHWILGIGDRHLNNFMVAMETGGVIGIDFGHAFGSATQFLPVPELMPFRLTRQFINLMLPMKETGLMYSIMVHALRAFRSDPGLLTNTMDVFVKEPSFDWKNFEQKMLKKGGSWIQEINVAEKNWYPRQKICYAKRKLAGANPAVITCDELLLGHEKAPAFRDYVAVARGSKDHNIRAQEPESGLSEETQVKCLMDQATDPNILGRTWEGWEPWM

For `CC[C@H]1COCCN1c1nc(-c2ccc(NC(=O)NC3CC3)cc2)nc2c1C(C)S(=O)(=O)C2` (stereo partly drawn) [Example 47, 1-cyclopropyl-3-(4-(4-((S)-3-ethylmorpholino)-5-methyl-6,6-dioxido-5,7-dihydrothieno[3,4-d]pyrimidin-2-yl)phenyl)urea], the IC50 is 79.4 nM in test [1], 100 to 1000 nM at mTOR, less than 100 nM in test [2] and more than 10000 nM in test [3].

As to `CNC(=O)Nc1ccc(-c2nc(N3CCOC[C@@H]3C)c3c(n2)C(C)(C)S(=O)(=O)C3)c(F)c1` [Example 66, (S)-1-(4-(7,7-dimethyl-4-(3-methylmorpholino)-6,6-dioxido-5,7-dihydrothieno[3,4-d]pyrimidin-2-yl)-3-fluorophenyl)-3-methylurea], the IC50 in test [1] is 1000 nM; on mTOR, less than 100 nM; in test [2], less than 100 nM; in test [3] it was more than 10000 nM.

For `C[C@H]1COCCN1c1nc(-c2ccc(NC(=O)NCCF)cc2)nc2c1CS(=O)(=O)C2(C)C` [Example 61, (S)-1-(4-(7,7-dimethyl-4-(3-methylmorpholino)-6,6-dioxido-5,7-dihydrothieno[3,4-d]pyrimidin-2-yl)phenyl)-3-(2-fluoroethyl)urea], the IC50 in test [1] is 251 nM; on mTOR, less than 100 nM; in test [2], less than 100 nM; in test [3], more than 10000 nM.

For the compound `CCNC(=O)Nc1ccc(-c2nc(N3CCOC[C@@H]3C)c3c(n2)C(C)(C)S(=O)(=O)C3)c(F)c1` [Example 69, (S)-1-(4-(7,7-dimethyl-4-(3-methylmorpholino)-6,6-dioxido-5,7-dihydrothieno[3,4-d]pyrimidin-2-yl)-3-fluorophenyl)-3-ethylurea], the IC50 in test [1] was 126 nM; at mTOR, less than 100 nM; in test [2], less than 100 nM; in test [3], more than 10000 nM.

Take `CCNC(=O)Nc1ccc(-c2nc3c(c(N4CCOC[C@@H]4C)n2)CS(=O)(=O)C(C)(C)C3)cc1` [Example 73, (S)-1-(4-(7,7-dimethyl-4-(3-methylmorpholino)-6,6-dioxido-7,8-dihydro-5H-thiopyrano[4,3-d]pyrimidin-2-yl)phenyl)-3-ethylurea]: the IC50 in test [1] was 63.1 nM; on mTOR, less than 100 nM; in test [2], less than 100 nM; in test [3], more than 10000 nM.

In the case of `CC1(C)c2nc(-c3ccc(NC(=O)NC4CC4)cc3)nc(N3C4CCC3COC4)c2CS1(=O)=O` [Example 59, 1-(4-(4-(3-oxa-8-azabicyclo[3.2.1]octan-8-yl)-7,7-dimethyl-6,6-dioxido-5,7-dihydrothieno[3,4-d]pyrimidin-2-yl)phenyl)-3-cyclopropylurea], the IC50 in test [1] was 100 nM; against mTOR, less than 100 nM; in test [2] it was less than 100 nM; in test [3], more than 10000 nM.

Consider `C[C@H]1COCCN1c1nc(-c2ccc(NC(=O)NC3COC3)cc2)nc2c1CS(=O)(=O)C2(C)C` [Example 68, (S)-1-(4-(7,7-dimethyl-4-(3-methylmorpholino)-6,6-dioxido-5,7-dihydrothieno[3,4-d]pyrimidin-2-yl)phenyl)-3-(oxetan-3-yl)urea], for which the IC50 in test [1] was 316 nM; against mTOR it was 100 to 1000 nM; in test [2] it was less than 100 nM; in test [3] it was more than 10000 nM.

In the case of `CNC(=O)Nc1ccc(-c2nc3c(c(N4CCOC[C@@H]4C)n2)C(C)S(=O)(=O)C3)cc1` (stereo partly drawn) [Example 58, 1-methyl-3-(4-(5-methyl-4-((S)-3-methylmorpholino)-6,6-dioxido-5,7-dihydrothieno[3,4-d]pyrimidin-2-yl)phenyl)urea], the IC50 was 251 nM in test [1], less than 100 nM against mTOR, less than 100 nM in test [2] and more than 10000 nM in test [3].

Turning to `C[C@H]1COCCN1c1nc(-c2ccc(NC(=O)NC3CC3)cc2)nc2c1CS(=O)(=O)C(C)(C)C2` [Example 70, (S)-1-cyclopropyl-3-(4-(7,7-dimethyl-4-(3-methylmorpholino)-6,6-dioxido-7,8-dihydro-5H-thiopyrano[4,3-d]pyrimidin-2-yl)phenyl)urea], the IC50 was 158 nM in test [1], less than 100 nM at mTOR, less than 100 nM in test [2] and more than 10000 nM in test [3].

Turning to `CCNC(=O)Nc1ccc(-c2nc(N3CCOC[C@H]3C)c3c(n2)C(C)(C)S(=O)(=O)C3)cc1` [Example 55, (R)-1-(4-(7,7-dimethyl-4-(3-methylmorpholino)-6,6-dioxido-5,7-dihydrothieno[3,4-d]pyrimidin-2-yl)phenyl)-3-ethylurea], the IC50 in test [1] was 100 nM; in test [2] it was less than 100 nM; in test [3], more than 10000 nM.

Turning to `CC[C@H]1COCCN1c1nc(-c2ccc(NC(=O)NC3CC3)cc2)nc2c1CS(=O)(=O)C2(C)C` [Example 51, (S)-1-cyclopropyl-3-(4-(4-(3-ethylmorpholino)-7,7-dimethyl-6,6-dioxido-5,7-dihydrothieno[3,4-d]pyrimidin-2-yl)phenyl)urea], the IC50 is 158 nM in test [1], less than 100 nM at mTOR, less than 100 nM in test [2] and more than 10000 nM in test [3].

Consider `CCNC(=O)Nc1ccc(-c2nc3c(c(N4CCOC[C@@H]4C)n2)C(CC)S(=O)(=O)C3)cc1` (stereo partly drawn) [Example 67, 1-ethyl-3-(4-(5-ethyl-4-((S)-3-methylmorpholino)-6,6-dioxido-5,7-dihydrothieno[3,4-d]pyrimidin-2-yl)phenyl)urea], for which the IC50 in test [1] is 316 nM; against mTOR, less than 100 nM; in test [2] it was less than 100 nM; in test [3], more than 10000 nM.

On to `CC[C@H]1COCCN1c1nc(-c2ccc(NC(=O)NC)c(F)c2)nc2c1CS(=O)(=O)C2(C)C` [Example 64, (S)-1-(4-(4-(3-ethylmorpholino)-7,7-dimethyl-6,6-dioxido-5,7-dihydrothieno[3,4-d]pyrimidin-2-yl)-2-fluorophenyl)-3-methylurea], for which the IC50 in test [1] is 158 nM; against mTOR, 100 to 1000 nM; in test [2], less than 100 nM; in test [3], more than 10000 nM.

Consider `CC1Cc2nc(-c3ccc(NC(=O)NC4CC4)cc3)nc(N3CCOC[C@@H]3C)c2CS1(=O)=O` (stereo partly drawn) [Example 71, 1-cyclopropyl-3-(4-(7-methyl-4-((S)-3-methylmorpholino)-6,6-dioxido-7,8-dihydro-5H-thiopyrano[4,3-d]pyrimidin-2-yl)phenyl)urea], for which the IC50 in test [1] was 794 nM; on mTOR, less than 100 nM; in test [2], less than 100 nM; in test [3], more than 10000 nM.

As for `CCNC(=O)Nc1ccc(-c2nc3c(c(N4CCOC[C@@H]4CC)n2)[C@H](C)S(=O)(=O)C3)cc1` [Example 53, 1-ethyl-3-(4-((S)-4-((S)-3-ethylmorpholino)-5-methyl-6,6-dioxido-5,7-dihydrothieno[3,4-d]pyrimidin-2-yl)phenyl)urea], the IC50 is 63.1 nM in test [1], less than 100 nM at mTOR, less than 100 nM in test [2] and more than 10000 nM in test [3].

Take `CCNC(=O)Nc1ccc(-c2nc3c(c(N4CCOC[C@@H]4CC)n2)[C@@H](C)S(=O)(=O)C3)cc1` [Example 52, 1-ethyl-3-(4-((R)-4-((S)-3-ethylmorpholino)-5-methyl-6,6-dioxido-5,7-dihydrothieno[3,4-d]pyrimidin-2-yl)phenyl)urea]: the IC50 is 31.6 nM in test [1], less than 100 nM at mTOR, less than 100 nM in test [2] and more than 10000 nM in test [3].

Take `CC1c2c(nc(-c3ccc(NC(=O)NC4CC4)cc3)nc2N2CCOC[C@@H]2C)CCS1(=O)=O` (stereo partly drawn) [Example 74, 1-cyclopropyl-3-(4-(5-methyl-4-((S)-3-methylmorpholino)-6,6-dioxido-7,8-dihydro-5H-thiopyrano[4,3-d]pyrimidin-2-yl)phenyl)urea]: the IC50 was 501 nM in test [1], less than 100 nM against mTOR, less than 100 nM in test [2] and more than 10000 nM in test [3].

`CCNC(=O)Nc1ccc(-c2nc(N3CCOC[C@@H]3CC)c3c(n2)C(C)(C)S(=O)(=O)C3)cc1` [Example 56, (S)-1-ethyl-3-(4-(4-(3-ethylmorpholino)-7,7-dimethyl-6,6-dioxido-5,7-dihydrothieno[3,4-d]pyrimidin-2-yl)phenyl)urea]: the IC50 in test [1] was 316 nM; at mTOR, less than 100 nM; in test [3] it was more than 10000 nM.
